Measured values as given in paper PMC8713164, “Development of a 1,2,4-Triazole-Based Lead Tankyrase Inhibitor: Part II” (Journal of Medicinal Chemistry, 2021).
Where “and” joins values, the source holds several entries; their conditions need not be identical. Equal entries are not always repeated. Where two headings read alike, the source gives them in different places.

What was measured:
WNT/β-catenin signaling = experiment: cellular (HEK293) WNT/β-catenin signaling luciferase reporter assay; type: cell-based, human; conditions: triplicates, 24: averages of multiple independent measurements
TNKS2 = target: T1, TNKS2 (Homo sapiens, UniProt Q9H2K2); experiment: TNKS2 biochemical assay (unreacted NAD+ fluorescence); conditions: TNKS2 5 nM, 500 nM NAD+, 20 h; quadruplicates; 95% confidence intervals in parentheses; 24: averages of multiple independent measurements; read-out: IC50 TNKS2
T1 construct: TNKS2 (residues 873–1162); made in house
T1 sequence (Q9H2K2 873-1162): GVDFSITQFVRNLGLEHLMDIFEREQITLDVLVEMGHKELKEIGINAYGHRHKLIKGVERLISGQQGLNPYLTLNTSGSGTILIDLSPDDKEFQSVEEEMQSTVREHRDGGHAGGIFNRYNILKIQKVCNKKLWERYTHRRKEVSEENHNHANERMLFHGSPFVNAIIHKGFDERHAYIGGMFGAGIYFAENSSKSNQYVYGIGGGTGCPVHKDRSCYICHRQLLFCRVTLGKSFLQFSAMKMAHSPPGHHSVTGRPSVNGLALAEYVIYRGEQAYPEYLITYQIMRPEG
Method: New compounds were prepared in half-log dilution series, and the reactions were carried out in quadruplicates with protein and compound controls to exclude the effect of compound autofluorescence. All reactions were performed at ambient temperature. TNKS1 (20 nM) or TNKS2 (5 nM) was incubated for 20 h in assay buffer (50 mM Bis-Tris propane (BTP), pH 7.0, 0.5 mM Tris(2-carboxyethyl)phosphine (TCEP), 0.01% Triton X-100) with compound and 10 μM or 500 nM NAD^+, respectively.

[1] = Homo sapiens, HEK293, read-out: IC50 HEK293, HEK293 WNT/β-catenin signaling reporter assay
[2] = read-out: IC50 HEK293, HEK293 WNT/β-catenin signaling reporter assay

Structure (SMILES) | IC50 (WNT/β-catenin signaling; [1]) [nM] | IC50 (TNKS2) | IC50 (WNT/β-catenin signaling; [2]) [nM]
O=C(N[C@H]1C[C@H](c2nnc(-c3ccc(OC4CC4)cn3)n2-c2ccccc2F)C1)c1ccccn1 [Compound 7, N-(trans-3-(5-(5-Cyclopropoxypyridin-2-yl)-4-(2-fluorophenyl)-4H-1,2,4-triazol-3-yl)cyclobutyl)picolinamide] | 49 | 8.6 nM | –
CC(C)Oc1ccc(-c2nnc([C@H]3C[C@H](NC(=O)c4ccccn4)C3)n2-c2ccccc2F)nc1 [Compound 8, N-(trans-3-(4-(2-Fluorophenyl)-5-(5-isopropoxypyridin-2-yl)-4H-1,2,4-triazol-3-yl)cyclobutyl)picolinamide] | 110 | 12 nM | –
O=C(N[C@H]1C[C@H](c2nnc(-c3ccccc3)n2-c2ccccc2F)C1)c1ccccn1 [Compound 9, N-(trans-3-(4-(2-Fluorophenyl)-5-phenyl-4H-1,2,4-triazol-3-yl)cyclobutyl)picolinamide] | 789 | 220 nM and 216 nM | –
O=C(N[C@H]1C[C@H](c2nnc(-c3cnccn3)n2-c2ccccc2F)C1)c1ccccn1 [Compound 10, N-(trans-3-(4-(-2-Fluorophenyl)-5-(pyrazin-2-yl)-4H-1,2,4-triazol-3-yl)cyclobutyl)picolinamide] | 355 | 93 nM | –
CCOc1ccc(-c2nnc([C@H]3C[C@H](NC(=O)c4ccccn4)C3)n2-c2ccccc2)nc1 [Compound 11, N-(trans-3-(5-(5-Ethoxypyridin-2-yl)-4-phenyl-4H-1,2,4-triazol-3-yl)cyclobutyl)picolinamide] | 65 | 5.2 nM | –
CCOc1ccc(-c2nnc([C@H]3C[C@H](NC(=O)c4ccccn4)C3)n2-c2cccc(Cl)c2)nc1 [Compound 12, N-(trans-3-(4-(3-Chlorophenyl)-5-(5-ethoxypyridin-2-yl)-4H-1,2,4-triazol-3-yl)cyclobutyl)picolinamide] | 83 | 13 nM | –
CCOc1ccc(-c2nnc([C@H]3C[C@H](NC(=O)c4ccccn4)C3)n2-c2ccc(C)s2)nc1 [Compound 13, N-(trans-3-(5-(5-Ethoxypyridin-2-yl)-4-(5-methylthiophen-2-yl)-4H-1,2,4-triazol-3-yl)cyclobutyl)picolinamide] | 37 | 4.6 nM | –
CCOc1ccc(-c2nnc([C@H]3C[C@H](NC(=O)c4ccccn4)C3)n2-c2ccc(Cl)s2)nc1 [Compound 14, N-(trans-3-(4-(5-Chlorothiophen-2-yl)-5-(5-ethoxypyridin-2-yl)-4H-1,2,4-triazol-3-yl)cyclobutyl)picolinamide] | 27 | 12 nM | –
CCOc1ccc(-c2nnc([C@H]3C[C@H](NC(=O)c4ccnc5cccnc45)C3)n2-c2ccccn2)nc1 [Compound 16a, N-(trans-3-(5-(5-Ethoxypyridin-2-yl)-4-(pyridin-2-yl)-4H-1,2,4-triazol-3-yl)cyclobutyl)-1,5-naphthyridine-4-carboxamide] | 36 | 5.8 nM | –
CCOc1ccc(-c2nnc([C@H]3C[C@H](NC(=O)c4ccnc5cc(F)cnc45)C3)n2-c2ccccn2)nc1 [Compound 16b, N-(trans-3-(5-(5-Ethoxypyridin-2-yl)-4-(pyridin-2-yl)-4H-1,2,4-triazol-3-yl)cyclobutyl)-7-fluoro-1,5-naphthyridine-4-carboxamide] | 8.7 | 8.5 nM | 9
CCOc1ccc(-c2nnc([C@H]3C[C@H](NC(=O)c4ccnc5cccnc45)C3)n2-c2cccnc2)nc1 [Compound 17a, N-(trans-3-(5-(5-Ethoxypyridin-2-yl)-4-(pyridin-3-yl)-4H-1,2,4-triazol-3-yl)cyclobutyl)-1,5-naphthyridine-4-carboxamide] | 16 | 4.5 nM | –
CCOc1ccc(-c2nnc([C@H]3C[C@H](NC(=O)c4ccnc5cc(F)cnc45)C3)n2-c2cccnc2)nc1 [Compound 17b, N-(trans-3-(5-(5-Ethoxypyridin-2-yl)-4-(pyridin-3-yl)-4H-1,2,4-triazol-3-yl)cyclobutyl)-7-fluoro-1,5-naphthyridine-4-carboxamide] | 9.1 | 5.8 nM | 9
